Take `O=C(CN1CCOCC1)Nc1nc(-c2ccco2)c(C(=O)c2ccccn2)s1` [Compound 172, N-[4-(2-Furyl)-5-(pyridin-2-ylcarbonyl)thiazol-2-yl]morpholinoacetamide]: the melting point fell in the range of 170 to 171 °C. `C[C@@H]1CN(CC(=O)Nc2nc(-c3ccco3)c(C(=O)c3ccccn3)s2)C[C@H](C)O1` [Compound 173, 2-(cis-2,6-Dimethylmorpholino)-N-[4-(2-furyl)-5-(pyridin-2-ylcarbonyl)thiazol-2-yl]acetamide]: the melting point fell in the range of 188 to 191 °C. `CC1CCN(CC(=O)Nc2nc(-c3ccco3)c(C(=O)c3ccccn3)s2)CC1` [Compound 174, N-[4-(2-Furyl)-5-(pyridin-2-ylcarbonyl)thiazol-2-yl]-2-(4-methylpiperidino)acetamide] yielded a melting point of 104 to 106 °C.

Consider `O=C(CN1CCC2(CC1)OCCO2)Nc1nc(-c2ccco2)c(C(=O)c2ccccn2)s1` [Compound 177, 2-(1,4-Dioxa-8-azaspiro[4.5]decan-8-yl)-N-[4-(2-furyl)-5-(pyridin-2-ylcarbonyl)thiazol-2-yl]acetamide], for which the melting point was 188 to 204 °C.

Consider `O=C(CN1CCC(N2CCCCC2)CC1)Nc1nc(-c2ccco2)c(C(=O)c2ccccn2)s1` [Compound 178, N-[4-(2-Furyl)-5-(pyridin-2-ylcarbonyl)thiazol-2-yl]-2-(4-piperidinopiperidino)acetamide], for which the melting point is 214 to 220 °C (dec.). For `O=C(CN1CCC(N2CCOCC2)CC1)Nc1nc(-c2ccco2)c(C(=O)c2ccccn2)s1` [Compound 179, N-[4-(2-Furyl)-5-(pyridin-2-ylcarbonyl)thiazol-2-yl]-2-(4-morpholinopiperidino)acetamide] the value was 149 to 150 °C; for `CCN1CCN(CC(=O)Nc2nc(-c3ccco3)c(C(=O)c3ccccn3)s2)CC1` [Compound 181, 2-(4-Ethylpiperazin-1-yl)-N-[4-(2-furyl)-5-(pyridin-2-ylcarbonyl)thiazol-2-yl]acetamide], 142 to 144 °C. For `CC(C)N1CCN(CC(=O)Nc2nc(-c3ccco3)c(C(=O)c3ccccn3)s2)CC1` [Compound 182, N-[4-(2-Furyl)-5-(pyridin-2-ylcarbonyl)thiazol-2-yl]-2-(4-isopropylpiperazine-1-yl)acetamide], the melting point was in the range of 154 to 155 °C. To `CC(=O)N1CCN(CC(=O)Nc2nc(-c3ccco3)c(C(=O)c3ccccn3)s2)CC1` [Compound 183, 2-(4-Acetylpiperazin-1-yl)-N-[4-(2-furyl)-5-(pyridin-2-ylcarbonyl)thiazol-2-yl]acetamide] belongs 170 to 171 °C; to `O=C(CN1CCN(c2ccccc2)CC1)Nc1nc(-c2ccco2)c(C(=O)c2ccccn2)s1` [Compound 184, N-[4-(2-Furyl)-5-(pyridin-2-ylcarbonyl)thiazol-2-yl]-2-(4-phenylpiperazin-1-yl)acetamide], 203 to 204 °C; to `O=C(CN1CCN(c2ccccn2)CC1)Nc1nc(-c2ccco2)c(C(=O)c2ccccn2)s1` [Compound 185, N-[4-(2-Furyl)-5-(pyridin-2-ylcarbonyl)thiazol-2-yl]-2-[4-(2-pyridyl)piperazin-1-yl]acetamide], 215 to 218 °C. For `O=C(CN1CCN(c2ncccn2)CC1)Nc1nc(-c2ccco2)c(C(=O)c2ccccn2)s1` [Compound 186, N-[4-(2-Furyl)-5-(pyridin-2-ylcarbonyl)thiazol-2-yl]-2-[4-(2-pyrimidinyl)piperazin-1-yl]acetamide] the value was 199 to 200 °C; for `O=C(CN1CCN(C2CCOCC2)CC1)Nc1nc(-c2ccco2)c(C(=O)c2ccccn2)s1` [Compound 187, N-[4-(2-Furyl)-5-(pyridin-2-ylcarbonyl)thiazol-2-yl]-2-[4-(tetrahydropyran-4-yl)piperazin-1-yl]acetamide], 172 to 188 °C.

A word on the melting point: it is the temperature of the solid-liquid transition.
